In patent publication US9988381B2, “Five-member-heterocycle fused pyridine compounds, method of producing the same, and use thereof” (SHANGHAI INSTITUTE OF MATERIA MEDICA, CHINESE ACADEMY OF …, priority 2013, dated 2018):
Like-named read-outs stand apart in the source and are kept apart here.

Experiments:
[1] = target: T1, c-Met kinase domain recombinant protein (Homo sapiens, UniProt P08581); experiment: biochemical; details: for inhibition at 0.1 µM: read-out: Average inhibition rate at 0.1 μM (%); for inhibition at 1 µM: read-out: Average inhibition rate at 1 μM (%); for inhibition at 10 µM: read-out: Average inhibition rate at 10 μM (%)
T1 construct: 50 μL diluted solution of c-Met kinase domain recombinant protein in reaction buffer was added to initiate the reaction
T1 sequence (P08581 1078-1345 limits assumed): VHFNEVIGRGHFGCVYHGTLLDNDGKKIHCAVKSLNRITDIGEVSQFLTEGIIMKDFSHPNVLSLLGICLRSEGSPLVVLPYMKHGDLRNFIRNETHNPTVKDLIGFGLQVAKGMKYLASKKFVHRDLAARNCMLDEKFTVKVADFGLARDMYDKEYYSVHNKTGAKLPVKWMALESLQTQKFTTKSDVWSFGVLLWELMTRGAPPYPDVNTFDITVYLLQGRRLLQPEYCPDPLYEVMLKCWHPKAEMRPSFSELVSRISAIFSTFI
Method: (§1) Enzymatic reaction substrate Poly(Glu,Tyr)4:1 was diluted to 20 μg/mL in potassium ion free PBS (10 mM sodium phosphate buffer, 150 mM NaCl, pH7.2-7.4), microplate was coated with this solution at 125 μL per well, and reacted at 37° C. for 12-16 hours. Liquid in wells was discarded, then the plate was washed 3 times for 5 minutes each with 200 μL per well of T-PBS (PBS containing 0.1% Tween-20).
Into each well was added 50 μL diluted ATP solution in reaction buffer (50 mM HEPES pH 7.4, 50 mM MgCl2, 0.5 mM MnCl2, 0.2 mM Na3VO4, 1 mM DTT), the final concentration was 5 μM. Test compound was diluted in DMSO to proper concentration, added at 1 μL per well or corresponding level of DMSO (negative control wells), then 49 μL diluted solution of c-Met kinase domain recombinant protein in reaction buffer was added to initiate the reaction, each test was setup with two wells of ATP free control. Reaction was performed in a 37° C. shaker (100 rpm) for 1 hour. The plate was washed three times with T-PBS. Primary antibody PY99 diluted solution was added at 100 μL per well, incubated in a 37° C. shaker for 0.5 hour.
The plate was washed three times with T-PBS. Goat anti mouse secondary antibody labeled with horseradish peroxidase was added at 100 μL per well, incubated in a 37° C. shaker for 0.5 hour. The plate was washed three times with T-PBS. […] Reaction was terminated by adding 50 μL per well of 2M H2SO4, the plate was read at 490 nm using a SPECTRA MAX 190 microplate reader with tunable wavelength.
(§2) Inhibition rate of the sample was calculated using the following equation: […]
IC50 was calculated by fitting the data for a four parameter fit using inhibition curve.

[2] = target: T1, c-Met kinase domain recombinant protein; experiment: biochemical; details: read-out: Inhibition rate at 10 μM (%)
Method: as §1, with “discarded. Plate washing:” for “discarded, then”, “(potassium ion free PBS” for “(PBS”
Into each well was added 49 μL diluted ATP solution in reaction buffer (50 mM HEPES pH 7.4, 50 mM MgCl2, 0.5 mM MnCl2, 0.2 mM Na3VO4, 1 mM DTT), and 1 μL per well of compound to be tested was added, then 50 μL diluted solution of c-Met kinase domain recombinant protein in reaction buffer was added to initiate the reaction, each test was setup with two wells of ATP free control. Reaction was performed in a 37° C. shaker (100 rpm) for 1 hour. Liquid in the wells was discarded, and the plate was washed three times with T-PBS.
Antibody PY99 was added at 100 μL per well (the antibody was 1:500 diluted in T-PBS containing 5 mg/mL BSA), incubated in a 37° C. shaker for 0.5 hour. Liquid in the wells was discarded, and the plate was washed three times with T-PBS.
Goat anti mouse secondary antibody labeled with horseradish peroxidase was added at 100 μL per well (the antibody was 1:2000 diluted in T-PBS containing 5 mg/mL BSA), incubated in a 37° C. shaker for 0.5 hour. Liquid in the wells was discarded, and the plate was washed three times with T-PBS.
Reaction was terminated by adding 50 μL per well of 2M H2SO4, the plate was read at 490 nm using a VERSAmax microplate reader with tunable wavelength.
as §2

| inhibition at 0.1 µM [1] | inhibition at 1 µM [1] | inhibition at 10 µM [1] | inhibition at 10 µM [2] | IC50 [1] | Structure (SMILES) |
| --- | --- | --- | --- | --- | --- |
|  |  | 12.1% | > 67.6% |  | Cn1cc(-c2cnc3cnn(S(=O)(=O)c4cnc5ccc(-c6cncnc6)cn45)c3c2)cn1 [Example 74, 1-{[6-(5-pyrimidine)-imidazo[1,2-a]pyridine]-3-sulfonyl}-6-[(1-methyl)-4-pyrazolyl]-1-H-pyrazolo[4,3-b]pyridine] |
| 23.1% | 47.6% | 68.7% | 58.4% |  | COc1ccc(OC)c(-c2cnc3cnn(S(=O)(=O)c4cnc5ccccn45)c3c2)c1 [Example 43, 1-(imidazo[1,2-a]pyridine-3-sulfonyl)-6-(2,5-dimethoxyphenyl)-1-H-pyrazolo[4,3-b]pyridine] |
|  | 47.5% | 80.6% | > 75.3% |  | CN1CCN(C(=O)c2ccc(-c3ccc4ncc(S(=O)(=O)n5ncc6ncc(-c7cnn(C)c7)cc65)n4c3)cc2)CC1 [Example 80, 1-{[6-[4-(4-methylpiperazine-1-carbonyl)phenyl]-imidazo[1,2-a]pyridine]-3-sulfonyl}-6-[(1-methyl)-4-pyrazolyl]-1-H-pyrazolo[4,3-b]pyridine] |
|  | 44.7% | 79.3% | 68.2% |  | Cn1cc(-c2cnc3cnn(S(=O)(=O)c4cnc5ccc(Br)cn45)c3c2)cn1 [Example 70, 1-[(6-bromo-imidazo[1,2-a]pyridine)-3-sulfonyl]-6-[(1-methyl)-4-pyrazolyl]-1-H-pyrazolo[4,3-b]pyridine] |
| 33.8% | 72.7% | 72.5% | > 76.8% |  | Cn1cc(-c2cnc3cnn(S(=O)(=O)c4cnc5ccc(-c6ccc(F)cc6F)cn45)c3c2)cn1 [Example 87, 1-{[6-(2,4-difluorophenyl)-imidazo[1,2-a]pyridine]-3-sulfonyl}-6-[(1-methyl)-4-pyrazolyl]-1-H-pyrazolo[4,3-b]pyridine] |
| 64.5% | 69.3% | 89.3% | > 12.1% |  | Cc1ccc(-c2ccc3ncc(S(=O)(=O)n4ncc5ncc(-c6cnn(C)c6)cc54)n3c2)cc1F [Example 78, 1-{[6-(3-fluoro-4-methylphenyl)-imidazo[1,2-a]pyridine]-3-sulfonyl}-6-[(1-methyl)-4-pyrazolyl]-1-H-pyrazolo[4,3-b]pyridine] |
|  | 30.1% | 79.4% | > 71.2% |  | CN(C)c1ccc(-c2ccc3ncc(S(=O)(=O)n4ncc5ncc(-c6cnn(C)c6)cc54)n3c2)cc1 [Example 85, 1-{[6-(4-dimethylaminophenyl)-imidazo[1,2-a]pyridine]-3-sulfonyl}-6-[(1-methyl)-4-pyrazolyl]-1-H-pyrazolo[4,3-b]pyridine] |
| 72.1% | 55.7% | 83.9% | > 74.3% |  | Cn1cc(-c2cnc3cnn(S(=O)(=O)c4cnc5ccc(-c6ccc(Cl)cc6)cn45)c3c2)cn1 [Example 94, 1-{[6-(4-chlorophenyl)-imidazo[1,2-a]pyridine]-3-sulfonyl}-6-[(1-methyl)-4-pyrazolyl]-1-H-pyrazolo[4,3-b]pyridine] |

Continued, compound first:

| Structure (SMILES) | inhibition at 0.1 µM [1] | inhibition at 1 µM [1] | inhibition at 10 µM [1] | inhibition at 10 µM [2] | IC50 [1] |
| --- | --- | --- | --- | --- | --- |
| CC(=O)c1ccc(-c2cnc3cnn(S(=O)(=O)c4cnc5ccccn45)c3c2)cc1 [Example 40, 1-(imidazo[1,2-a]pyridine-3-sulfonyl)-6-(4-acetylphenyl)-1-H-pyrazolo[4,3-b]pyridine] | 45.7% | 57.4% | 66% | 66% |  |
| CS(=O)(=O)Nc1ccc(-c2cnc3cnn(S(=O)(=O)c4cnc5ccccn45)c3c2)cc1 [Example 34, 1-(imidazo[1,2-a]pyridine-3-sulfonyl)-6-(4-methylsulfamidophenyl)-1-H-pyrazolo[4,3-b]pyridine] | 31.3% | 49.3% | 61.3% | 61.3% |  |
| COc1ccc(S(=O)(=O)n2ncc3ncc(-c4cnn(C)c4)cc32)cc1 [Compound 17, 1-(4-methoxybenzenesulfonyl)-6-[(1-methyl)-4-pyrazolyl]-1-H-pyrazolo[4,3-b]pyridine] |  |  | 49.9% | 49.9% |  |
| O=S(=O)(c1cnc2ccccn12)n1ncc2ncc(-c3ccc(CN4CCOCC4)cc3)cc21 [Example 38, 1-(imidazo[1,2-a]pyridine-3-sulfonyl)-6-(4-morpholinomethylphenyl)-1-H-pyrazolo[4,3-b]pyridine] | 63.2% | 63.9% | 87.1% | 87.1% |  |
| Cn1cc(-c2cnc3cnn(S(=O)(=O)c4ccc([N+](=O)[O-])cc4)c3c2)cn1 [Compound 9, 1-(4-nitrobenzenesulfonyl)-6-[(1-methyl)-4-pyrazolyl]-1-H-pyrazolo[4,3-b]pyridine] |  |  | 22% | 22% |  |
| Cn1cc(-c2cnc3cnn(S(=O)(=O)c4ccc(C(F)(F)F)cc4)c3c2)cn1 [Compound 15, 1-(4-trifluoromethylbenzenesulfonyl)-6-[(1-methyl)-4-pyrazolyl]-1-H-pyrazolo[4,3-b]pyridine] |  |  | 40.6% | 40.6% |  |
| Cn1cc(-c2cnc3cnn(S(=O)(=O)c4cnn5cccnc45)c3c2)cn1 [Example 22, 1-(pyrazolo[1,5-a]pyrimidine-3-sulfonyl)-6-[(1-methyl)-4-pyrazolyl]-1-H-pyrazolo[4,3-b]pyridine] | 24.9% | 58.7% | 69.5% | 69.5% | 39.7 ± 6.3 nM |
| CC(=O)c1ccc(S(=O)(=O)n2ncc3ncc(-c4cnn(C)c4)cc32)cc1 [Compound 13, 1-(4-acetylbenzenesulfonyl)-6-[(1-methyl)-4-pyrazolyl]-1-H-pyrazolo[4,3-b]pyridine] | 28.5% | 45.3% | 52.6% | 52.6% |  |
| Cn1cc(-c2cnc3[nH]nc(S(=O)(=O)c4ccccc4[N+](=O)[O-])c3c2)cn1 [Compound 2, 3-(2-nitrobenzenesulfonyl)-5-[(1-methyl)-4-pyrazolyl]-1-H-pyrazolo[3,4-b]pyridine] |  | 7% | 92.8% | 92.8% |  |
| Cn1cc(-c2cnc3ccn(S(=O)(=O)c4ccccc4[N+](=O)[O-])c3c2)cn1 [Compound 1, 1-(2-nitrobenzenesulfonyl)-6-[(1-methyl)-4-pyrazolyl]-1-H-pyrrolo[3,2-b]pyridine] |  |  | 88.1% | 88.1% |  |
| Cn1cc(-c2cnc3cnn(S(=O)(=O)c4ccccc4F)c3c2)cn1 [Compound 6, 1-(2-fluorobenzenesulfonyl)-6-[(1-methyl)-4-pyrazolyl]-1-H-pyrazolo[4,3-b]pyridine] |  |  | 34.4% | 34.4% |  |
| O=S(=O)(c1cnc2ccccn12)n1ncc2ncc(-c3ccoc3)cc21 [Example 31, 1-(imidazo[1,2-a]pyridine-3-sulfonyl)-6-(3-furanyl)-1-H-pyrazolo[4,3-b]pyridine] | 59% | 64.1% | 69% | 69% |  |
| COc1ccc(S(=O)(=O)n2ncc3ncc(-c4cnn(C)c4)cc32)cc1OC [Compound 10, 1-(3,4-dimethoxybenzenesulfonyl)-6-[(1-methyl)-4-pyrazolyl]-1-H-pyrazolo[4,3-b]pyridine] |  |  | 37.9% | 37.9% |  |
